Test results: US6723897B2, “Methods for controlling gibberellin levels” (Monsanto Technology, LLC, priority 1998, dated 2004)

Experiments:
[1] = tested on: constitutively GA-deficient transgenic dwarf soybean line 719; assay: Experiment I greenhouse test, seed imbibition, GA-deficient soybean; assay type: in vivo, Glycine max; parameters: Observation on Transgenic Line 719: key: −1: treated plants are shorter as compared to untreated plants; 0: treated plants had the same stature as untreated plants; 1: treated plants are slightly elongated as compared to untreated plants; 2: treated plants are moderately elongated as compared to untreated plants; 3: treated plants are highly elongated as compared to untreated plants; 4: treated plants are extremely elongated as compared to untreated plants; details: 0.25 mg/ml; for effect in both the constitutive transgenic dwarf and wild-type soybean lines: imbibition, lines 719 and A3237; for Observation on Transgenic Line 719: seeds imbibed 5 hours
Excerpt: Seeds are covered with 0.5″ of vermiculite.

[2] = tested on: wild-type soybean line A3237; assay: Experiment I greenhouse test, seed imbibition, wild-type soybean; details: 0.25 mg/ml; seeds imbibed 5 hours
Protocol: Compounds are first prepared as 25 mg/ml solutions in ethanol as described above, and then diluted into 40 ml of water to prepare the final 0.25 mg/ml treatment solutions. Visual observations on solubilities (milky, clear, etc.) of the treatment solutions are noted. The treatment solutions are divided into two 20 ml portions, each in 50 ml plastic centrifuge tubes. In addition to treating seeds with solutions containing the test compounds, untreated seeds and seeds imbibed in ethanol-water solution (300 μl ethanol in 30 mls of water) are also included in this experiment as controls. […]
(§1) After imbibition, seeds are removed from the test tubes, placed on wax paper to dry, and planted in bread pans containing farm soil amended with fertilizer at 20 seeds/pan. Seeds are covered with 0.5″ of vermiculite. Pans are transferred to the greenhouse, which had day/night temperatures of 86/68° F. (30/20° C.), and subirrigated. Illumination is at a light intensity of 300-400 μmolm^−2s^−1 photosynthetic photon flux; 16 hours light/8 hours dark. Subsequent waterings are also through sub-irrigation until the test is terminated three weeks later. Observations included the number of dwarf, intermediate, and tall plants; plant height; uniformity of rescue; and any visual effects.

[3] = tested on: constitutively GA-deficient transgenic dwarf soybean line 719; assay: Experiment II second greenhouse test, seed imbibition, GA-deficient soybean; assay type: in vivo, Glycine max; details: seeds imbibed 6 hours
Protocol: (The compounds are tested in Experiment I at only one concentration, i.e., 0.25 mg/ml). Test tubes contained […] of ethanol solution per tube. Final volumes are made up to 30 ml with deionized water. After shaking, the treatment solutions (15 ml each) are transferred to each of two 50 ml test tubes. […] Twenty seeds are used in each treatment. Dry seed, ethanol/water-imbibed seed (1% ethanol in water, v/v), and water-imbibed seeds are included as controls. Seeds are imbibed for 6 hours in the test solutions, then planted in bread pans containing Metromix 350 (The Scotts Company, Marysville, Ohio), and covered with 0.5″ Metro-mix. Covered pans are transferred to the greenhouse and subirrigated. Illumination is at a light intensity of 300-400 μmolm^−2s^−1 photosynthetic photon flux; 16 hours light/8 hours dark. Subsequent waterings are also through sub-irrigation until the test is terminated three weeks later. Observations included the number of dwarf, intermediate, and tall plants; plant height; uniformity of rescue; and any visual effects. Digital photographs are also taken.

[4] = tested on: constitutively GA-deficient transgenic dwarf soybeans (line 719); assay: Summary of first two greenhouse experiments, rescue of GA-deficient soybeans; assay type: in vivo, Glycine max; parameters: key: +: transgenic soybeans are rescued; 0: transgenic soybeans are not rescued
Protocol: (§2) Compounds are first prepared as 25 mg/ml solutions in ethanol as described above, and then diluted into 40 ml of water to prepare the final 0.25 mg/ml treatment solutions. Visual observations on solubilities (milky, clear, etc.) of the treatment solutions are noted. The treatment solutions are divided into two 20 ml portions, each in 50 ml plastic centrifuge tubes. In addition to treating seeds with solutions containing the test compounds, untreated seeds and seeds imbibed in ethanol-water solution (300 μl ethanol in 30 mls of water) are also included in this experiment as controls. In the latter case, 20 seeds are imbibed in 30 mls of solution for six hours.
as §1, with “Two soybean varieties are selected for testing: constitutively GA-deficient transgenic dwarf soybean line 719 (plasmid pMON29801, constitutive FMV promoter/asCPScc; which is a mixture of 719−2 and 719+17), and A3237, the wild-type parent material. […] After” for “After”
(§3) All compounds are tested at final concentrations of 0.25, 0.025, and 0.0025 mg/ml except for GA9, which is tested at 0.125, 0.0125, and 0.00125 mg/ml. (The compounds are tested in Experiment I at only one concentration, i.e., 0.25 mg/ml). Test tubes contained […] of ethanol solution per tube. Final volumes are made up to 30 ml with deionized water. After shaking, the treatment solutions (15 ml each) are transferred to each of two 50 ml test tubes. Treatments 1 to 27 are performed on wild-type line A3237; treatments 28 to 54 are performed on constitutively GA-deficient transgenic dwarf soybean line 719 (a mixture of 719−2 and 719+17). Twenty seeds are used in each treatment. Dry seed, ethanol/water-imbibed seed (1% ethanol in water, v/v), and water-imbibed seeds are included as controls. Seeds are imbibed for 6 hours in the test solutions, then planted in bread pans containing Metromix 350 (The Scotts Company, Marysville, Ohio), and covered with 0.5″ Metro-mix. Covered pans are transferred to the greenhouse and subirrigated. Illumination is at a light intensity of 300-400 μmolm^−2s^−1 photosynthetic photon flux; 16 hours light/8 hours dark. Subsequent waterings are also through sub-irrigation until the test is terminated three weeks later. Observations included the number of dwarf, intermediate, and tall plants; plant height; uniformity of rescue; and any visual effects. Digital photographs are also taken.

[5] = tested on: wild-type soybeans (line A3237); assay: Summary of first two greenhouse experiments, elongation of wild-type soybeans
Protocol: as §2
as §1, with “Two soybean varieties are selected for testing: constitutively GA-deficient transgenic dwarf soybean line 719 (plasmid pMON29801, constitutive FMV promoter/asCPScc; which is a mixture of 719−2 and 719+17), and A3237, the wild-type parent material. […] After” for “After”
as §3

[6] = Particulate material present in solutions after mixing; assay type: physicochemical
Protocol: Each of the compounds noted above is weighed to the nearest 0.1 mg in a pre-tarred 1.5-ml polypropylene vial with a screw-top lid. Absolute ethanol is added to the weighed powder to prepare a 25 mg/ml solution. Solutions are thoroughly mixed using a vortex mixer. A stainless steel spatula is used to crush any particulate material remaining after extensive mixing. Vials are left overnight at room temperature, and then remixed to form the concentrated ethanol stock solutions. The presence of undissolved material is noted throughout this procedure.

[7] = 0.0025 mg/ml solution (ethanol-water)
[8] = 0.025 mg/ml solution (ethanol-water)
[9] = 0.25 mg/ml solution (ethanol-water)

| SMILES | effect in both the constitutive transgenic dwarf and wild-type soybean lines [1] | Observation on Transgenic Line 719 [1] | Observation on Wild-Type Line A3237 [2] | Significant Visual Observations on Line 719 ([3]; 0.0025 mg/ml) | Significant Visual Observations on Line 719 ([3]; 0.025 mg/ml) | Rescue of GA-deficient soybeans [4, 7] | Rescue of GA-deficient soybeans [4, 8] | Rescue of GA-deficient soybeans [4, 9] | Elongation of wild-type soybeans [5, 7] | Elongation of wild-type soybeans [5, 8] | Elongation of wild-type soybeans [5, 9] | solubility in water during imbibition ([6]; 0.25 mg/ml treatment solutions) | Particulate material present, 100X Diln w/water ([6]; 0.25 mg/ml compound in water) | Significant Visual Observations on Line 719 ([3]; 0.25 mg/ml) |
| --- | --- | --- | --- | --- | --- | --- | --- | --- | --- | --- | --- | --- | --- | --- |
| C=C1C[C@]23C[C@@]1(O)CC[C@H]2[C@@]12CC[C@H](O)[C@@](C)(C(=O)O1)[C@H]2[C@@H]3C(=O)O [GA1] | excessive elongation | 4 | 4 | Good rescue of dwarfs | Good rescue of dwarfs | + | + | + | − | + | + |  |  |  |
| C=C1C[C@]23C[C@H]1CC[C@H]2[C@@]12CC[C@H](O)[C@@](C)(C(=O)O1)[C@H]2[C@@H]3C(=O)OC [GA4 methyl ester] | slight to medium elongation | 1 | 1 |  |  |  |  | 0 |  |  |  | less soluble in water during imbibition |  |  |
| C=C1C[C@]23C[C@H]1CC[C@H]2[C@@]12CC[C@H](O)[C@@](C)(C(=O)O1)[C@H]2[C@@H]3C(=O)O [GA4] | slight to medium elongation | 2 | 2 |  |  |  |  | + |  |  | + |  |  |  |
| C=C1C[C@]23C[C@H]1CC[C@H]2[C@@]12C=C[C@H](O)[C@@](C)(C(=O)O1)[C@H]2[C@@H]3C(=O)OC [GA7 methyl ester] | slight to medium elongation | 2 | 1 |  |  |  |  | 0 |  |  |  |  | YES |  |
| C=C1C[C@]23C[C@@]1(O)CC[C@H]2[C@@]12CCC[C@@](C)(C(=O)O1)[C@H]2[C@@H]3C(=O)O [GA20] | excessive elongation | 4 | 4 | Good rescue of dwarfs | Good rescue of dwarfs | + | + | + | + | + | + |  |  | Excessive elongation |
